Assays:
Beas-2B cells [1] = experiment: Cell-surface HS / CS after enzyme treatment (anti-HS or anti-CS antibody, flow cytometry); format: cell-based; conditions: 5 U/ml heparinase I or 2.4 U/ml heparinase III, 2 h, anti-HS monoclonal antibody, untreated cells 100%, n = 3
Method: Figure 3 HS-dependent ECP^32–-41 internalization. […] (B) Samples of wild-type and mutant CHO cells were each incubated with 5 µM FITC-ECP^32–41 at 37°C for 1 h and then subjected to flow cytometry. (C) Samples of wild-type and mutant CHO cells were incubated with 5 µM FITC-ECP^32–41 at 37°C for 1 h., then washed twice with 1 ml PBS, and fixed for CLSM. Nuclei were stained with Hoechst 34850. Scale bar: 20 µm. (D) Beas-2B cells were treated with heparinase I, heparinase III, or chondroitinase ABC for 2 h prior to incubation with 5 µM FITC-ECP^32–41 at 37°C for 1 h. […] Untreated cells served as the controls. The fluorescence of cells treated with FITC-ECP^32–41 was set to 100%. […] (E) Beas-2B cells were treated with heparinase I, heparinase III, or chondroitinase ABC for 2 h. […] Untreated cells served as the control. The fluorescence of the untreated cells was set to 100%.
To verify that selective cell-surface polysaccharides had been enzymatically removed, the treated cells were subsequently incubated with anti-HS or anti-CS monoclonal antibodies. As expected, heparinase I and heparinase III had decreased the amount of HS on Beas-2B cell surfaces by 48% and 61%, respectively (Figure 3E, left panel), and chondroitinase ABC removed 72% of the cell-surface CS (Figure 3E, right panel). The HS that remained on Beas-2B cell surface accounted for the observed ECP^32–41 internalization into heparinase-treated cells. Conversely, even though 70% of the initial cell-surface CS had been removed, ECP^32–41 internalization was hardly affected–thus as concluded above, HS, rather than CS, is responsible for ECP^32–41 internalization.
Beas-2B cells (3.0×10^5/well) were incubated with RPMI 1640 medium overnight in six-well plates and then treated with 5 U/ml of heparinase I, 2.4 U/ml of heparinase III, or 10 U/ml of chondroitinase ABC (Sigma-Aldrich) at 37°C for 2 h. After a PBS wash, the cells were incubated with FITC-ECP^32–41 and assayed for internalization of the peptide by flow cytometry as described above.

Beas-2B cells [2] = experiment: Cell viability assay (MTT); conditions: Beas-2B, 100 µM peptide, 37°C, 24 h; n = 3
Method: Beas-2B cells were grown in serum-free medium in the presence of ECP^32–41 at indicated concentrations for 24 h. (A) The cytotoxic effect of ECP^32–41 was measured by MTT assay. The cell viability of untreated cells was set to 100%. Cells treated with 0.1% Triton X-100 was used as a positive control. (B) The membrane disruption by ECP^32–41 was measured by LDH assay. LDH released from cells lysed with 0.1% Triton X-100 in medium was defined as 100% leakage and LDH released from untreated cells was set as 0% leakage.
Beas-2B cells were incubated with 10 µM eGFP or eGFP-ECP^32–41 at 37°C for 1 h. The cells were then washed with 500 µl PBS, trypsinized at 37°C for 15 min, suspended in 500 µl PBS, and subjected to flow cytometry. (B) Beas-2B cells were treated with the indicated concentrations of TAT^47–57, ECP^32–41, KLA, KLA-TAT^47–57 or KLA-ECP^32–41 at 37°C for 24 h, and their cytotoxic effects were determined by the MTT assay. Cytotoxic effects of (C) KLA-TAT^47–57 and (D) KLA-ECP^32–41, at the indicated concentrations, on Beas-2B, A549, Caco-2, and AGS cells were assessed by the MTT assay after incubation at 37°C for 24 h. The cell viability untreated cells was set to 100%. The result is expressed as the mean ± S.D., n = 3.
The effects of the peptides on cell viability were determined colourimetrically using 3-(4,5-dimethylthiazol-2-yl)-2,5-diphenyltetrazolium bromide (MTT) (US Biological). Cells (1.0×10^4/well) were seeded into the wells of 96-well plates and incubated overnight. Cell samples were then exposed to different concentrations of TAT^47–57, ECP^32–41, KLA, KLA-TAT^47–57 or KLA-ECP^32–41. After 24 h, 100 µl of 0.5 mg/ml MTT in medium was added into each well, and the cells were incubated at 37°C for 3 h. The incubation medium was removed, and the remaining purple crystal formazan was dissolved in dimethylsulphoxide. Cells treated with 0.1% Triton X-100 was used as a positive control for cell viability. A540 values were measured using a multiwall plate reader (Molecular Devices).

Compound | decrease of the amount of HS on Beas-2B cell surfaces (Beas-2B cells [1]) | cell viability (MTT) at 100 µM (Beas-2B cells [2])
heparinase III | 61% | –
N=C(N)NCCC[C@H](NC(=O)CN)C(=O)N[C@@H](CCCCN)C(=O)N[C@@H](CCCCN)C(=O)N[C@@H](CCCNC(=N)N)C(=O)N[C@@H](CCCNC(=N)N)C(=O)N[C@@H](CCC(N)=O)C(=O)N[C@@H](CCCNC(=N)N)C(=O)N[C@@H](CCCNC(=N)N)C(=O)N[C@@H](CCCNC(=N)N)C(=O)N1CCC[C@H]1C(=O)O [TAT^47–57] | – | neither peptide affected cell viability
heparinase I | 48% | –

— paper PMC3587609, “A Novel Cell-Penetrating Peptide Derived from Human Eosinophil Cationic Protein” (PLoS ONE, 2013)
